The text below walks through data of ChEMBL document CHEMBL5346921, “Discovery of novel benzamide derivatives bearing benzamidophenyl and phenylacetamidophenyl scaffolds as potential antitumor agents via targeting PARP-1” (Eur J Med Chem, 2023).

The test concerns HCT-116. Kind of test: Induction of apoptosis in human HCT-116 cells assessed as late apoptotic cells at 1.5 uM incubated for 48 hrs by AnnexinV-FITC/PI staining based flow cytometry (reference value: 0%). Format: functional. For orientation: In flow cytometry, cells or beads pass a laser one at a time.

As to `NC(=O)c1ccccc1OCc1cccc(NC(=O)c2ccc(Br)cc2)c1`, the Activity was 2.97%.
